The target in assay [1] is Glutamate receptor 4 (Rattus norvegicus, UniProt P19493). In words: biochemical.
The target in assay [2] is Glutamate receptor 3 (Rattus norvegicus, UniProt P19492). Put plainly: biochemical.
Assay [3] deals with Glutamate receptor 2 (Rattus norvegicus, UniProt P19491). In words: biochemical.
Assay [4] has as its target T1, Glutamate receptor 1 (Homo sapiens, UniProt P42261). In words: Agonist activity at GluA1 receptor (unknown origin) expressed in HEK293 cells assessed induction of S-glutamate-induced calcium flux at 300 uM measured after 90 secs in presence of cyclothiazide by Fluo4-AM dye-based fluorescence assay relative to S-glutamate. In kind it is cell-based. (Calcium assays in cells follow changes in intracellular calcium, usually with a dye or a luminescent sensor.)

The target in assay [5] is T2, Glutamate receptor 4 (Homo sapiens, UniProt P48058).
T2 sequence (P48058 whole entry): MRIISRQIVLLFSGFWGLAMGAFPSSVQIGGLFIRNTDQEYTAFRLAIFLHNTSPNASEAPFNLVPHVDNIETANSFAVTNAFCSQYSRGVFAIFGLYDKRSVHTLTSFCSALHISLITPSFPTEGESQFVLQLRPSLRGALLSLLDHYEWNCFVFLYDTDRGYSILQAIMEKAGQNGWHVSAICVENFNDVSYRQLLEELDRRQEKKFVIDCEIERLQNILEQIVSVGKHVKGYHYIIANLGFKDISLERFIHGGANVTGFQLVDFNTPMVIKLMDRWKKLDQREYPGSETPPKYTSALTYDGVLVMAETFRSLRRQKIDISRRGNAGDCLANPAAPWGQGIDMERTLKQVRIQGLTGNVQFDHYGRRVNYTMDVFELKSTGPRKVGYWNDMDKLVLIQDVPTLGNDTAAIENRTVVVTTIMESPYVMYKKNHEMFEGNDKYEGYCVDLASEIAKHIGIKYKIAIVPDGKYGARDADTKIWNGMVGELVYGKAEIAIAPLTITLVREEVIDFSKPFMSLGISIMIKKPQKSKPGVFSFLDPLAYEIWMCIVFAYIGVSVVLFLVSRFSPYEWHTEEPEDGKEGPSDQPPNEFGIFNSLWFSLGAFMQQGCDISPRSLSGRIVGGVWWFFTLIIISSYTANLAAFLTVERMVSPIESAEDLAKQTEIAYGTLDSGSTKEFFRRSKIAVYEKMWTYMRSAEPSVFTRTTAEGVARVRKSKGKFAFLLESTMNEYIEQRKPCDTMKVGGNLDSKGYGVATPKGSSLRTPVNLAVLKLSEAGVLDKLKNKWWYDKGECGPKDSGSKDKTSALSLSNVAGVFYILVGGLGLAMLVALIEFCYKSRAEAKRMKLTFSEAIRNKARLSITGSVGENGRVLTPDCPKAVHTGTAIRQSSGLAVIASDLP
The target in assay [6] is T3, Glutamate receptor 3 (Homo sapiens, UniProt P42263). In words: Agonist activity at GluA3 receptor (unknown origin) expressed in HEK293 cells assessed induction of S-glutamate-induced calcium flux at 300 uM measured after 90 secs in presence of cyclothiazide by Fluo4-AM dye-based fluorescence assay relative to S-glutamate. In kind it is cell-based.
T3 sequence (P42263 whole entry): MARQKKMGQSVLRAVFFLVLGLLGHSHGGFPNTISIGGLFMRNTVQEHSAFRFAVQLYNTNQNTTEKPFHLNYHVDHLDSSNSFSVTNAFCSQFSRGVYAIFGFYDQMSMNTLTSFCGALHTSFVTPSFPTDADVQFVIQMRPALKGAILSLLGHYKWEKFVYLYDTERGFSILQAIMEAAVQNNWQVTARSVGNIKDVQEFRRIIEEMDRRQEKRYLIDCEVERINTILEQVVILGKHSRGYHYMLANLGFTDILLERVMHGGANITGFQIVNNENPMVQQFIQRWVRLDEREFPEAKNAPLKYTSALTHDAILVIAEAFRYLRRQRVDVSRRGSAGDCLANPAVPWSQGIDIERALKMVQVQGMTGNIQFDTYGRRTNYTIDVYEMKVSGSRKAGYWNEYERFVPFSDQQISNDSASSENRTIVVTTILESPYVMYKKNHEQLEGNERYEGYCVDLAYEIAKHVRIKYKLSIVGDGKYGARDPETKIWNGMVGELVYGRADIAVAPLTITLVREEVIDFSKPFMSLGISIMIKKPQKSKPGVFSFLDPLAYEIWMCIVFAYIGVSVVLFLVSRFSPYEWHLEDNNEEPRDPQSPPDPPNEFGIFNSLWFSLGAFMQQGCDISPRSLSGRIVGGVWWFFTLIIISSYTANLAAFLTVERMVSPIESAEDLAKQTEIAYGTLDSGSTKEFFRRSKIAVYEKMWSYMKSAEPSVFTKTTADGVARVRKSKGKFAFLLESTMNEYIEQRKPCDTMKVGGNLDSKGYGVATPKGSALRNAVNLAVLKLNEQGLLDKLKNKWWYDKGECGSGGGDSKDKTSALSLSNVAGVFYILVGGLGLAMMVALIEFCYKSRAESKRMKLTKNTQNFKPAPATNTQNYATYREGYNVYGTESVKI
The target in assay [7] is T4, Glutamate NMDA receptor; Grin1/Grin2c (Rattus norvegicus) (UniProt P35439+Q00961). In words: Agonist activity at recombinant rat GluN1a/GluN2C expressed in Xenopus laevis oocytes at 100 uM at -40 mV holding potential by two-electrode voltage clamp electrophysiology method. In kind it is cell-based. (In general: In two-electrode clamp one electrode senses voltage and the other passes current.)

For assay [8], the target named is T5, Glutamate NMDA receptor; Grin1/Grin2b (Rattus norvegicus) (UniProt P35439+Q00960). Put plainly: Agonist activity at recombinant rat GluN1a/GluN2B expressed in Xenopus laevis oocytes at 300 uM at -40 mV holding potential in presence of glutamate by two-electrode voltage clamp electrophysiology method relative to control. In kind it is cell-based.
In assay [9] the target is T6, Glutamate NMDA receptor; Grin1/Grin2a (Rattus norvegicus) (UniProt P35439+Q00959). Put plainly: Agonist activity at recombinant rat GluN1a/GluN2A expressed in Xenopus laevis oocytes at 300 uM at -40 mV holding potential in presence of glutamate by two-electrode voltage clamp electrophysiology method relative to control. In kind it is cell-based.
Assay [10] addresses T5, Glutamate NMDA receptor; Grin1/Grin2b (Rattus norvegicus). In words: Agonist activity at recombinant rat GluN1a/GluN2B expressed in Xenopus laevis oocytes at 100 uM at -40 mV holding potential by two-electrode voltage clamp electrophysiology method. In kind it is cell-based.
For assay [11], the target named is T7, Ionotropic glutamate receptor NMDA 1/2D (Rattus norvegicus) (UniProt P35439+Q62645). In words: Agonist activity at recombinant rat GluN1a/GluN2D expressed in Xenopus laevis oocytes at -40 mV holding potential in presence of glutamate by two-electrode voltage clamp electrophysiology method relative to control. In kind it is cell-based.
Assay [12] concerns the target T8, Ionotropic glutamate receptor NMDA 1/2D (Rattus norvegicus, UniProt P35439+Q62645).
The target in assay [13] is Glutamate receptor ionotropic, AMPA (Rattus norvegicus, UniProt P19490+P19491+P19492+P19493).
The target of assay [14] is T7, Ionotropic glutamate receptor NMDA 1/2D (Rattus norvegicus). Put plainly: Agonist activity at recombinant rat GluN1a/GluN2D expressed in Xenopus laevis oocytes at -40 mV holding potential in presence of glycine by two-electrode voltage clamp electrophysiology method relative to glycine. In kind it is cell-based.
Assay [15] deals with T6, Glutamate NMDA receptor; Grin1/Grin2a (Rattus norvegicus). Put plainly: Agonist activity at recombinant rat GluN1a/GluN2A expressed in Xenopus laevis oocytes at 100 uM at -40 mV holding potential by two-electrode voltage clamp electrophysiology method. In kind it is cell-based.
Assay [16] concerns the target T4, Glutamate NMDA receptor; Grin1/Grin2c (Rattus norvegicus). Put plainly: Agonist activity at recombinant rat GluN1a/GluN2C expressed in Xenopus laevis oocytes at -40 mV holding potential in presence of glutamate by two-electrode voltage clamp electrophysiology method relative to control. In kind it is cell-based.
Assay [17] addresses T8, Ionotropic glutamate receptor NMDA 1/2D. This is another data set of the same source.
Assay [18] addresses T7, Ionotropic glutamate receptor NMDA 1/2D (Rattus norvegicus). In words: Agonist activity at recombinant rat GluN1a/GluN2D expressed in Xenopus laevis oocytes at 100 uM at -40 mV holding potential by two-electrode voltage clamp electrophysiology method. In kind it is cell-based.
In assay [19] the target is T6, Glutamate NMDA receptor; Grin1/Grin2a (Rattus norvegicus). In words: Agonist activity at recombinant rat GluN1a/GluN2A expressed in Xenopus laevis oocytes at 300 uM at -40 mV holding potential in presence of glycine by two-electrode voltage clamp electrophysiology method relative to glycine. In kind it is cell-based.
Assay [20] deals with Glutamate receptor 2 (Homo sapiens, UniProt P42262).
Chain of Glutamate receptor 2 (Homo sapiens, UniProt P42262) (P42262 whole entry): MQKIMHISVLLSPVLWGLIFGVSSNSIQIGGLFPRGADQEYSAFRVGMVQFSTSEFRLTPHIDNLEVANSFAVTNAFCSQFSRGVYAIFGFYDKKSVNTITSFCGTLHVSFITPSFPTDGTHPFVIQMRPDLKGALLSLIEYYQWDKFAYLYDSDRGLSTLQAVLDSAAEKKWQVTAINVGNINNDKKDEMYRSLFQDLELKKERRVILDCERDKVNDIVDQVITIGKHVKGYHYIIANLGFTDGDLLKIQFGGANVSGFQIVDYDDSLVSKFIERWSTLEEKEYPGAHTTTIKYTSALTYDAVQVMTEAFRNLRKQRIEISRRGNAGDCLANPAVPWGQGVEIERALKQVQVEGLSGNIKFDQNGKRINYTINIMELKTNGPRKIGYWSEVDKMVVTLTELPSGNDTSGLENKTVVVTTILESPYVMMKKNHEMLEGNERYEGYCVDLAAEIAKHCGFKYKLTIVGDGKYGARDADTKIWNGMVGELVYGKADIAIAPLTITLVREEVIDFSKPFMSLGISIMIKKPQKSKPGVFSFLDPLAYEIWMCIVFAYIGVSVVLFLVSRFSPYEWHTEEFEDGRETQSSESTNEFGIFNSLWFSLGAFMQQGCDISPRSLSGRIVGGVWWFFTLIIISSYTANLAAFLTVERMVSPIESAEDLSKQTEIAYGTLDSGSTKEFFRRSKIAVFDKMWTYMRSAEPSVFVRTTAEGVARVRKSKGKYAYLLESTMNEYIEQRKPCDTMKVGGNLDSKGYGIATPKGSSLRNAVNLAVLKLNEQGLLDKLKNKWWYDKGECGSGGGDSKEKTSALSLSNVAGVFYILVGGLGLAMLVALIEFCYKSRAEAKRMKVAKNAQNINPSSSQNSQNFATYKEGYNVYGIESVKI
The target in assay [21] is T3, Glutamate receptor 3.
Assay [22] has as its target T1, Glutamate receptor 1.
Assay [23] addresses Glutamate receptor 1 (Rattus norvegicus, UniProt P19490). Put plainly: biochemical.
Assay [24] has as its target Glutamate NMDA receptor.
Assay [25] has as its target T2, Glutamate receptor 4. Put plainly: Agonist activity at GluA4 receptor (unknown origin) expressed in HEK293 cells assessed induction of S-glutamate-induced calcium flux at 1000 uM measured after 90 secs in presence of cyclothiazide by Fluo4-AM dye-based fluorescence assay relative to S-glutamate. In kind it is cell-based.

The source made the active and inactive calls. The rule behind the calls is not given here.

Chain of Glutamate receptor 2 (Rattus norvegicus, UniProt P19491) (P19491 whole entry): as the sequence (P42262 whole entry) above, with M191T, T291A, R764G, A852P counted along it
T1 sequence (P42261 whole entry): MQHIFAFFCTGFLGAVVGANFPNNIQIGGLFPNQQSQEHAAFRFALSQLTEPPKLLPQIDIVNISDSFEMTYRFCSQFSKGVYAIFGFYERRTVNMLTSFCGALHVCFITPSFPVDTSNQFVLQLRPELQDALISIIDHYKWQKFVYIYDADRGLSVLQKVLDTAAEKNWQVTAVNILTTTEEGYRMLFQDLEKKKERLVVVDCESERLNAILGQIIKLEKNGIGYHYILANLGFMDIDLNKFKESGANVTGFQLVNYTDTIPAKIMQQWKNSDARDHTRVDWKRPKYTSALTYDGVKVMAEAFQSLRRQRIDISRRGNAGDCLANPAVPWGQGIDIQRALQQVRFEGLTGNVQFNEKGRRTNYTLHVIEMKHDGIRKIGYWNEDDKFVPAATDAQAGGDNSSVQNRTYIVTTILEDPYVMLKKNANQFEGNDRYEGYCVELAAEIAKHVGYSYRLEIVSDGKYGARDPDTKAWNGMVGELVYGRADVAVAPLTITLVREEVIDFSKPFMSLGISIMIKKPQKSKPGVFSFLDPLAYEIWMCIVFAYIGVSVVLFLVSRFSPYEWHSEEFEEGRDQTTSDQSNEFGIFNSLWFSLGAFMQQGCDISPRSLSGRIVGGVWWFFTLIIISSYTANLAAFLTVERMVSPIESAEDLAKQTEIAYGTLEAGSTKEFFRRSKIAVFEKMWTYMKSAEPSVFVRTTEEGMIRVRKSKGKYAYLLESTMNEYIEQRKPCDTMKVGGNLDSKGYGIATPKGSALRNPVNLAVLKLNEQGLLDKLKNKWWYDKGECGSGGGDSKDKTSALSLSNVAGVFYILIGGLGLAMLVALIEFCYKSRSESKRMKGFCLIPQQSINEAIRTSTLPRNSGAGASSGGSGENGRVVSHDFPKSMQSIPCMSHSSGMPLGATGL
Chain of Glutamate receptor 3 (Rattus norvegicus, UniProt P19492) (P19492 whole entry): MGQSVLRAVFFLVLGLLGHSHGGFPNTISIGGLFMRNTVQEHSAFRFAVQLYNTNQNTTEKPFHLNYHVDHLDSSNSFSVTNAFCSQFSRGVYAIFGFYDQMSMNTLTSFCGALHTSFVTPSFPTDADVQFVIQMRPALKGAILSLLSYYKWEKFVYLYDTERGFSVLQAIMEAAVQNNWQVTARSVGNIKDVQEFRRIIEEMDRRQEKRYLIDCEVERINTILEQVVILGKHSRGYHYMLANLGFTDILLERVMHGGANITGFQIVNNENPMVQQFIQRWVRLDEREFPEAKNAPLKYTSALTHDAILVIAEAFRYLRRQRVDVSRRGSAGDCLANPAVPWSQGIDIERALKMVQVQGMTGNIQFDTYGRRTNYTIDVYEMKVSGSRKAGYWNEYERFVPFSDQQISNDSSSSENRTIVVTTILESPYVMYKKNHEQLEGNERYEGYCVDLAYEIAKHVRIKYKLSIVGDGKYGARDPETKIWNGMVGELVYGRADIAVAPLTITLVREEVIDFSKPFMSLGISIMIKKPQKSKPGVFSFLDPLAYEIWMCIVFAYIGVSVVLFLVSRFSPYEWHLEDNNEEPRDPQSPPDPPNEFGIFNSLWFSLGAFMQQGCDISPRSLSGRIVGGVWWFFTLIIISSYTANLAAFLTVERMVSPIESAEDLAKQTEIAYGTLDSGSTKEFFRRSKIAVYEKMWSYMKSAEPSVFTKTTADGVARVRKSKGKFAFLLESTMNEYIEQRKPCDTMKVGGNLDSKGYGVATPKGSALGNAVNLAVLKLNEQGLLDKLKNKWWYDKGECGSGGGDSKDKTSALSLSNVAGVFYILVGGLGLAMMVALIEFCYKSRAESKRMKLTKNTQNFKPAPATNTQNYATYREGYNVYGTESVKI

As usually defined, the Ki is a measure of affinity in units of concentration, obtained from inhibition or displacement. On to `Cn1nnc(-c2onc(O)c2CC(N)C(=O)O)n1` (centres undefined), for which the Ki in assay [1] was found to be 0.0027 µM; in assay [2] it was 0.0022 µM; in assay [3] it was 3.9 nM.
The term EC50 denotes the concentration that produces a half-maximal response. The low end stands for greater potency, the high end for weaker potency. Consider `Cn1nnc(O)c1CC(N)C(=O)O` (racemic), for which the %max in [4] and in assay [6] was more than 5% each time. This compound also gave an EC50 in [5] of 56.2 µM. In [3], this compound gave a Ki of 1870 nM.
What is called IC50 is the midpoint of a concentration-inhibition curve. A low value points to greater potency in that assay. For the compound `Cn1nc(O)c(C(N)C(=O)O)n1` (racemic), the outcome in [7], in [10] and in [18] was Active. The Imax came out at 52% in assay [8]; 38% in assay [9]; 98% in assay [11]; 58% in [14]; 107% in [16]. Also, the EC50 in assay [12] was determined as 58 µM; in assay [17], 35 µM. This compound came in with an IC50 in [13] of more than 100 µM. Further, in assay [15], the result was inactive. Also, in assay [19], the Imax entry was “inactive”.
On to `CCn1nc(O)c(CC(N)C(=O)O)n1` (racemic), for which the EC50 was more than 1 mM in assay [20], more than 1 mM in [21], more than 1 mM in [22] and more than 1000 µM in [5]. Moreover, in [13], the IC50 was more than 100 µM. Also, the Ki in assay [23] was more than 100 µM; in assay [24], more than 100 µM; in assay [1] it was more than 100 µM; in assay [2], 100 µM; in [3], more than 100000 nM.
In the case of `CCCn1nc(O)c(CC(N)C(=O)O)n1` (racemic), in assay [22], the EC50 was more than 1 mM. The IC50 in assay [13] was more than 100 µM. In addition, the Ki in assay [23] is more than 100 µM; in [24], more than 100 µM; in assay [1] it was more than 100 µM; in assay [2], more than 100 µM; in [3] it was more than 100000 nM. In addition, the %max in [25] is more than 5%.
`CCCn1nnc(O)c1CC(N)C(=O)O` (racemic) yielded an EC50 in [5] of 51 µM. Besides, the Ki in assay [24] is more than 100 µM; in assay [1] it was 100 µM; in [3], 3250 nM. Also, the %max in [6] was more than 5%.
In turn, `CN[C@H](CC(=O)O)C(=O)O` [N-METHYL-D-ASPARTIC ACID (NMDA)] showed an IC50 in assay [13] of more than 100 µM.
